The values that follow come from the OPERA property sets (Mansouri et al. 2018).

Each structure is given as a SMILES string.

As to `NC1=NCC(COc2ccccc2)O1` (configuration not stated), the logP worked out at 1.27.
For `CCOc1ccccc1OCC1CN=C(N)O1` (configuration not stated) the value was 1.24; for `CN(C)c1cccc(OCC2CN=C(N)O2)c1` (configuration not stated), 1.4.
`COc1ccccc1OCC1CN=C(N)O1` (configuration not stated): the logP was found to be 0.85.
To `COc1ccc(OCC2CN=C(N)O2)cc1` (configuration not stated) belongs 1.26; to `NC1=NCC(COc2ccccc2Cl)O1` (configuration not stated), 1.77.
For `NC1=NCC(COc2cccc([N+](=O)[O-])c2)O1` (configuration not stated) the value was 1.23; for `Cc1ccccc1OCC1CN=C(N)O1` (configuration not stated), 1.69; for `NC1=NCC(COc2ccc([N+](=O)[O-])cc2)O1` (configuration not stated), 1.17.
Turning to `Cc1ccc(OCC2CN=C(N)O2)cc1` (configuration not stated), the logP was determined as 1.79.
`NC1=NCC(COc2ccc(Cl)cc2)O1` (configuration not stated) gave a logP of 2.
The compound `NC1=NCC(COc2ccc(N3CCOCC3)cc2)O1` (configuration not stated) gave a logP of 0.6.
